Laboratory results: ChEMBL document CHEMBL1151153, “Chemistry of Sponges, VII. 11,19-Dideoxyfistularin 3 and 11-Hydroxyaerothionin, Bromotyrosine Derivatives from Pseudoceratina durissima” (J Nat Prod, 1990)
The source made the active and inactive calls.

Columns and labels:
Assay type in all cases: functional, organism-based
Staphylococcus aureus [1] = assay: Antimicrobial activity against Staphylococcus aureus at 100 ug/disk
Bacillus subtilis [2] = assay: Antimicrobial activity against Bacillus subtilis at 50 ug/disk
Candida albicans [3] = assay: Antimicrobial activity against Candida albicans at 50 ug/disk
Staphylococcus aureus [4] = assay: Antimicrobial activity against Staphylococcus aureus at 25 ug/disk
Bacillus subtilis [5] = assay: Antimicrobial activity against Bacillus subtilis at 10 ug/disk
Candida albicans [6] = assay: Antimicrobial activity against Candida albicans at 25 ug/disk

Measured: Activity

COC1=C(Br)[C@H](O)[C@@]2(C=C1Br)CC(C(=O)NCCCCNC(=O)C1=NO[C@]3(C=C(Br)C(OC)=C(Br)[C@@H]3O)C1)=NO2
active: Staphylococcus aureus [1] | Bacillus subtilis [2] | Candida albicans [3]

COC1=C(Br)[C@@H](O)[C@]2(C=C1Br)CC(C(=O)NCCc1cc(Br)c(OCCCNC(=O)C3=NO[C@]4(C=C(Br)C(OC)=C(Br)[C@@H]4O)C3)c(Br)c1)=NO2
active: Staphylococcus aureus [4] | Bacillus subtilis [5] | Candida albicans [6]

COC1=C(Br)[C@H](O)[C@@]2(C=C1Br)CC(C(=O)NCCCCCNC(=O)C1=NO[C@]3(C=C(Br)C(OC)=C(Br)[C@@H]3O)C1)=NO2
active: Staphylococcus aureus [1] | Bacillus subtilis [2] | Candida albicans [3]

COC1=C(Br)[C@@H](O)[C@]2(C=C1Br)CC(C(=O)NCCC(O)CNC(=O)C1=NO[C@]3(C=C(Br)C(OC)=C(Br)[C@@H]3O)C1)=NO2 (some centres not stated)
active: Staphylococcus aureus [1] | Bacillus subtilis [2] | Candida albicans [3]
